Type in all cases: cell-based
Assay [1] addresses T1, protein kinases (human kinome) (Homo sapiens, UniProt Q9UIG0).
T1 sequence (Q9UIG0 1-1483): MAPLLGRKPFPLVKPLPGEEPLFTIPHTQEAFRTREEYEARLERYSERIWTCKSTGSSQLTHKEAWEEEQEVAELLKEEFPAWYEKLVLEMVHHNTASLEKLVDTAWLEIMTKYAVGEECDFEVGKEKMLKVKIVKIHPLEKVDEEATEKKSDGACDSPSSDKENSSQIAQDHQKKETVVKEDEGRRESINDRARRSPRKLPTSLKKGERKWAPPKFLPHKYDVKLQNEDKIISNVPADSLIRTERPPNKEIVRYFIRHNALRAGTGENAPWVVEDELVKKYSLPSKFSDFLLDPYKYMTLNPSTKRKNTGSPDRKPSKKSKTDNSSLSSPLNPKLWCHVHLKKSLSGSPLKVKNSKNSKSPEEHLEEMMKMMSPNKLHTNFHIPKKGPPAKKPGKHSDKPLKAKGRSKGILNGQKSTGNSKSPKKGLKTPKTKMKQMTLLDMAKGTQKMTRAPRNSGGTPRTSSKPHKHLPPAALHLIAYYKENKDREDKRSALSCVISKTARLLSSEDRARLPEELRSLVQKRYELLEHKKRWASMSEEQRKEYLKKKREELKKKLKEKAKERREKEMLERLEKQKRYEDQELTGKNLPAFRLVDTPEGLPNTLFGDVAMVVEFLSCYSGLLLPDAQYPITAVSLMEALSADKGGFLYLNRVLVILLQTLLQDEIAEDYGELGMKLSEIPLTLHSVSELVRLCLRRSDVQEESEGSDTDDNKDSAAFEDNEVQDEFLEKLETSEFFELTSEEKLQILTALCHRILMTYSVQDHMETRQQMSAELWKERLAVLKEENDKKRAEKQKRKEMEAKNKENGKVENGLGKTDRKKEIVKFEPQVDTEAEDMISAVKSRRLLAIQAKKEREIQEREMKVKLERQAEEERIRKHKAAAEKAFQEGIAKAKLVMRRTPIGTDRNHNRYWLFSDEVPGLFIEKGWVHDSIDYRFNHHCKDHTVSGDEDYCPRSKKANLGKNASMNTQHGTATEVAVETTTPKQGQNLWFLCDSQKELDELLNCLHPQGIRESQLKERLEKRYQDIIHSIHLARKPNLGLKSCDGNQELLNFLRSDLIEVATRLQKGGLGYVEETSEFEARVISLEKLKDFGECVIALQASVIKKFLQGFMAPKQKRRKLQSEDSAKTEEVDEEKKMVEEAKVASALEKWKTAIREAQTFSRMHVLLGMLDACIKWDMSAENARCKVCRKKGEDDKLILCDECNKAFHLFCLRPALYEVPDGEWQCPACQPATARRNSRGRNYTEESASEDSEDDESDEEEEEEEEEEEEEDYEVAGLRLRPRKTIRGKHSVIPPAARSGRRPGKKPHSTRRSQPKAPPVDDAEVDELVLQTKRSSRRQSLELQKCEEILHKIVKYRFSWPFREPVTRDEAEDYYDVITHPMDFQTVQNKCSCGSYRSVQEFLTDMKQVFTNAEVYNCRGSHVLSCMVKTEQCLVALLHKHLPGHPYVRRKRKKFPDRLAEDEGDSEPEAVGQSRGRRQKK
The following applies: BAZ1B (Q9UIG0).

The target in assay [2] is protein kinases (human kinome) (Homo sapiens, UniProt P35790). The following applies: CHKA P35790.
The target in assay [3] is protein kinases (human kinome) (Homo sapiens, UniProt P49674). The settings on record: CSNK1E P49674.
For assay [4], the target named is protein kinases (human kinome) (Homo sapiens, UniProt Q9NSY1). The settings on record: BMP2K Q9NSY1.
Assay [5] has as its target protein kinases (human kinome) (Homo sapiens, UniProt P06493). The following applies: CDK1 P06493.
Assay [6] addresses protein kinases (human kinome) (Homo sapiens, UniProt P54819). The following applies: AK2 (P54819); experiment wp056.

This note sets out measurements from patent US20240269139A1, “COMPOUNDS FOR TARGETED PROTEIN DEGRADATION OF KINASES” (DANA-FARBER CANCER INSTITUTE, INC., priority 2020, published 2024).

Like-named read-outs stand apart in the source and are kept apart here.

Chain of protein kinases (human kinome) (Homo sapiens, UniProt P49674) (P49674 whole entry): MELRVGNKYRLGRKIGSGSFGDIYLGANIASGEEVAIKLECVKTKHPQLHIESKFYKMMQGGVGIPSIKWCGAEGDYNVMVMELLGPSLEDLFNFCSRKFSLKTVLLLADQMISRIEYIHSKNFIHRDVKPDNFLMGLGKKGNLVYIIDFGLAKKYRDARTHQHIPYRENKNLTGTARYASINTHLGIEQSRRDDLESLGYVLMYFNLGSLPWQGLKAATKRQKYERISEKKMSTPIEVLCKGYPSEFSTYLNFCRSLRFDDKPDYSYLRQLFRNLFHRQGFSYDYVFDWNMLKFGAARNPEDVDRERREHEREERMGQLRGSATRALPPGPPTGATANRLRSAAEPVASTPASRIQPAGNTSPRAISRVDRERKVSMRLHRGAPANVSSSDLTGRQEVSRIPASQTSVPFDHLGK
Chain of protein kinases (human kinome) (Homo sapiens, UniProt Q9NSY1) (Q9NSY1 whole entry): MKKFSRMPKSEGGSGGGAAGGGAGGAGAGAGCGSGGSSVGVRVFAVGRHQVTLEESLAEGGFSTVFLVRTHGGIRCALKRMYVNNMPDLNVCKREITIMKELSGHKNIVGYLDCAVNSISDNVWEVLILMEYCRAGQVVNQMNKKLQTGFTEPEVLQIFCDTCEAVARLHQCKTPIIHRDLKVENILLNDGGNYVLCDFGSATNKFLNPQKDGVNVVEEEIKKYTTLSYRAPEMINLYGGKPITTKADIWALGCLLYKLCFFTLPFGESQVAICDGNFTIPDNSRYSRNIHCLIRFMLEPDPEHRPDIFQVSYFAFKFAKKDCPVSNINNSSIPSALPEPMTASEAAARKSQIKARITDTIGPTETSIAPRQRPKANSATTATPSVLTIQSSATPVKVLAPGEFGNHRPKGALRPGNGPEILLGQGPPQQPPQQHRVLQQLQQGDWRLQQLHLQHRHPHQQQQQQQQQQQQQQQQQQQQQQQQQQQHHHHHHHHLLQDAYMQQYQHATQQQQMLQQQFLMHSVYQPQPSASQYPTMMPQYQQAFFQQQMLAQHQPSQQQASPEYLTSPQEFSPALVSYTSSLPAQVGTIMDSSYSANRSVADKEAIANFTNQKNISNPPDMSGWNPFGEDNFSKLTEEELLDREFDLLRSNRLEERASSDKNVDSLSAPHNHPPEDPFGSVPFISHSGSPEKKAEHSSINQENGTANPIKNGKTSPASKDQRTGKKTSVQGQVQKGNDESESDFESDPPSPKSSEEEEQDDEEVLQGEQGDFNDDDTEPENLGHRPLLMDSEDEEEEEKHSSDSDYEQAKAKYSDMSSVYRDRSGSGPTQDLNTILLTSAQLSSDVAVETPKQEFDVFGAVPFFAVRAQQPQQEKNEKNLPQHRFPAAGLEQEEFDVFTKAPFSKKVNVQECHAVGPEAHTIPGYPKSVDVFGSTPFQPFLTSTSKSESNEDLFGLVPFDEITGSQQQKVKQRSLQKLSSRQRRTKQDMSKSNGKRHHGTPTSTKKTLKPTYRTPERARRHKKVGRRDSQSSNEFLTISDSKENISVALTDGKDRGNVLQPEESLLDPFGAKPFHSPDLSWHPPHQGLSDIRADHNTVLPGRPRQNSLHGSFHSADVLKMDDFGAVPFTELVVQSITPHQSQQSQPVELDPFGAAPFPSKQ
Chain of protein kinases (human kinome) (Homo sapiens, UniProt P06493) (P06493 whole entry): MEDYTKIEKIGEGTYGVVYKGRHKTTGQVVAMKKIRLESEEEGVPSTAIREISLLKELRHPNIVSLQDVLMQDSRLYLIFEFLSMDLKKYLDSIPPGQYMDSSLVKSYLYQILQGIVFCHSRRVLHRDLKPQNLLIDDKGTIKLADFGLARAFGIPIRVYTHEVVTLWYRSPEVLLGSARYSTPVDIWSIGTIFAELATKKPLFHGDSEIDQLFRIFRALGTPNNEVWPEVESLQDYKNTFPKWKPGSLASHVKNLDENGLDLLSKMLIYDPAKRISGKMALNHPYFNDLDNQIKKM
Chain of protein kinases (human kinome) (Homo sapiens, UniProt P35790) (P35790 whole entry): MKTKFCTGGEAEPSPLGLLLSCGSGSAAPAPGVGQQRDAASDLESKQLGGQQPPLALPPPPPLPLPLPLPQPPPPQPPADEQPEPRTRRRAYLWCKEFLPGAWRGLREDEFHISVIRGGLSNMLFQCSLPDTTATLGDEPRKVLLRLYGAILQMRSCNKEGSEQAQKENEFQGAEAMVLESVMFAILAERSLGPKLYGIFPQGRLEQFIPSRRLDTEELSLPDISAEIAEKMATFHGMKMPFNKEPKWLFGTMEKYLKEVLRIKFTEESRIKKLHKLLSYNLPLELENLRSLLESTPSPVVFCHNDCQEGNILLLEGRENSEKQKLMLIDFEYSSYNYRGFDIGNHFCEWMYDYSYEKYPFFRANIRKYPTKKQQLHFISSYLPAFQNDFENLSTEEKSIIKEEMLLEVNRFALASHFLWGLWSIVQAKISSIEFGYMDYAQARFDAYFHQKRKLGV

In the case of `CC(C)(C)c1nc(-c2cccc(NS(=O)(=O)c3c(F)cccc3F)c2F)c(-c2ccnc(NCCOCCNC(=O)CCOCCOCCNc3cccc4c3CN(C3CCC(=O)NC3=O)C4=O)n2)s1` (stereo not drawn) [DD.03.107], the logFC in assay [1] (experiment wp147, 4 uM) is listed as −0.3418.

In the case of `CC(C)S(=O)(=O)c1ccccc1Nc1nc(Nc2ccc(N3CCN(CCOCCOCCNC(=O)CNc4cccc5c4C(=O)N(C4CCC(=O)NC4=O)C5=O)CC3)cc2)ncc1Cl` (stereo not drawn) [TL12.186], the logFC in assay [2] (experiment wp131) is reported as −0.3954. Besides, in assay [3] (experiment wp137), the logFC is given as −0.4411 and the “logFC CSNK1E” value is on record as −0.4411.

Consider `CS(=O)(=O)Nc1cccc(-c2csc3cnc(Nc4ccc(N5CCN(CCCCCOc6cccc7c6C(=O)N(C6CCC(=O)NC6=O)C7=O)CC5)cc4)nc23)c1` (stereo not drawn) [DB0614, N-(3-(2-((4-(4-(5-((2-(2,6-Dioxopiperidin-3-yl)-1,3-dioxoisoindolin-4-yl)oxy)pentyl)piperazin-1-yl)phenyl)amino)thieno[3,2-d]pyrimidin-7-yl)phenyl)methanesulfonamide], for which, in assay [4] (experiment wp045), the logFC is recorded as −0.3909 and the “logFC BMP2K” value was −0.3909.

In assay [2] (experiment wp076), `O=C1CCC(N2C(=O)c3cccc(NCCCCCCCCN4CCC(NC(=O)c5[nH]ncc5NC(=O)c5c(Cl)cccc5Cl)CC4)c3C2=O)C(=O)N1` (stereo not drawn) [MFH.5.126.1] showed a logFC of −0.4653.

Turning to `Cc1cc(Nc2ncc(Br)c(Nc3cccc(F)c3C(N)=O)n2)ccc1S(=O)(=O)NCCOCCOCCOCCOCCNc1cccc2c1C(=O)N(C1CCC(=O)NC1=O)C2=O` (stereo not drawn) [TMX.02.174], in assay [5] (experiment wp146), the logFC is −1.629 and the “logFC CDK1” value is reported as −1.629.

With `CC(C)(C)c1nc(-c2cccc(NS(=O)(=O)c3c(F)cccc3F)c2F)c(-c2ccnc(NCCOCCNC(=O)CCOCCOCCNc3cccc4c3C(=O)N(C3CCC(=O)NC3=O)C4=O)n2)s1` (stereo not drawn) [DD.03.106], in assay [5] (experiment wp147, 2 uM), the logFC is given as −0.5015 and the “logFC CDK1” value is given as −0.5015. Besides, in assay [5] (experiment wp147, 4 uM), the logFC is on record as −0.5416 and the “logFC CDK1” value was −0.5416.

Turning to `Cc1ncsc1-c1ccc([C@H](C)NC(=O)[C@@H]2C[C@@H](O)CN2C(=O)[C@@H](NC(=O)CCOCCOCCN2CCN(c3ccc(Nc4ncc(Cl)c(Nc5ccccc5S(=O)(=O)C(C)C)n4)cc3)CC2)C(C)(C)C)cc1` [FMF.06.098.1], the logFC in assay [5] (experiment wp131) was −0.3535; in assay [2] (experiment wp108), −0.3716; in assay [2] (experiment wp131) it was −0.4457. The “logFC CDK1” value in assay [5] (experiment wp131) is recorded as −0.3535.

As for `Cc1ccc(NC(=O)c2cccc(C(F)(F)F)c2)cc1N1Cc2cnc(Nc3ccc(N4CCN(Cc5cn(CCCCCOc6cccc7c6C(=O)N(C6CCC(=O)NC6=O)C7=O)nn5)CC4)nc3)nc2N(C)C1=O` (stereo not drawn) [DB0646, N-(3-(7-((6-(4-((1-(5-((2-(2,6-Dioxopiperidin-3-yl)-1,3-dioxoisoindolin-4-yl)oxy)pentyl)-1H-1,2,3-triazol-4-yl)methyl)piperazin-1-v)pyridin-3-yl)amino)-1-methyl-2-oxo-1,4-dihydropyrimido[4,5-d]pyrimidin-3(2H)-yl)-4-methylphenyl)-3-(trifluoromethyl)benzamide], the logFC in assay [2] (experiment wp152) was −0.3979; in assay [2] (experiment wp160, 8 hr) it was −0.4303.

Take `NC(=O)c1c(F)cccc1Nc1nc(Nc2ccc(S(=O)(=O)NCCOCCOCCOCCOCCNc3cccc4c3C(=O)N(C3CCC(=O)NC3=O)C4=O)cc2)ncc1Br` (stereo not drawn) [TMX.02.138]: in assay [5] (experiment wp146), the logFC is recorded as −1.641 and the “logFC CDK1” value is given as −1.641.

For `Cc1ccc(NC(=O)c2cccc(C(F)(F)F)c2)cc1N1Cc2cnc(Nc3ccc(N4CCN(CCCOc5cccc6c5C(=O)N(C5CCC(=O)NC5=O)C6=O)CC4)nc3)nc2N(C)C1=O` (stereo not drawn) [DB0662], the logFC in assay [2] (experiment wp168) is −0.3222.

Turning to `CC(C)S(=O)(=O)c1ccccc1Nc1nc(Nc2ccc(N3CCN(CCOCCNC(=O)CNc4ccc5c(c4)C(=O)N(C4CCC(=O)NC4=O)C5=O)CC3)cc2)ncc1Cl` (stereo not drawn) [SK.3.93], in assay [4] (experiment wp016), the logFC was −0.4575 and the “logFC BMP2K” value was −0.4575.

For `Cc1ccc(C(=O)Nc2ccc(CN3CCN(CCCOCCOCCOCCNC(=O)COc4cccc5c4C(=O)N(C4CCC(=O)NC4=O)C5=O)CC3)c(C(F)(F)F)c2)cc1C#Cc1cnc2cccnn12` (stereo not drawn) [SB1.G.187], the logFC in assay [6] is reported as −0.3691.

Turning to `Nc1ncnc2c1c(-c1ccc(Oc3ccccc3)cc1)nn2[C@H]1CC[C@H](N2CCN(CCOCCNC(=O)CNc3cccc4c3C(=O)N(C3CCC(=O)NC3=O)C4=O)CC2)CC1` (stereo partly drawn) [SB1.G.181], in assay [3] (experiment wp071), the logFC is −1.189 and the “logFC CSNK1E” value is −1.189.

Regarding `Nc1ncc(-c2ccc(S(=O)(=O)N(CCCNC(=O)CCOCCOCCOCCOCCOCCNc3cccc4c3C(=O)N(C3CCC(=O)NC3=O)C4=O)C3CC3)cc2)cc1-c1ccc2c(c1)CCNC2=O` (stereo not drawn) [WH.10417.099], the logFC in assay [3] (experiment wp056) was −1.591; in assay [3] (experiment wp103), −1.306; in assay [3] (experiment wp105), −0.8305; in assay [3] (experiment wp107) it was −2.192; in assay [3] (experiment wp172) it was −1.164. For the same molecule, the “logFC CSNK1E” value in assay [3] (experiment wp056) was −1.591; in assay [3] (experiment wp103), −1.306; in assay [3] (experiment wp105), −0.8305; in assay [3] (experiment wp107), −2.192; in assay [3] (experiment wp172), −1.164.

Consider `Cc1cnc(Nc2ccc(N3CCN(CCOCCOCCNC(=O)COc4cccc5c4C(=O)N(C4CCC(=O)NC4=O)C5=O)CC3)cc2)nc1Nc1cccc(S(=O)(=O)NC(C)(C)C)c1` (stereo not drawn) [JWG.118], for which, in assay [4] (experiment wp071), the logFC is recorded as −0.3528 and the “logFC BMP2K” value is given as −0.3528.

For the molecule `CC(C)S(=O)(=O)c1ccccc1Nc1nc(Nc2ccc(N3CCN(CCOCCNC(=O)CNc4cccc5c4C(=O)N(C4CCC(=O)NC4=O)C5=O)CC3)cc2)ncc1Cl` (stereo not drawn) [SK.3.91], the logFC in assay [4] (experiment wp016) is reported as −0.4706; in assay [4] (experiment wp105), −0.4043. Moreover, the “logFC BMP2K” value was −0.4706 in assay [4] (experiment wp016) and −0.4043 in assay [4] (experiment wp105).

Take `O=C(COc1cccc2c1C(=O)N(C1CCC(=O)NC1=O)C2=O)NCCCCCCCN1CCc2cc(Nc3ncc(C4CC4)c(NCCCNC(=O)C4CCC4)n3)ccc2C1` (stereo not drawn) [BSJ.04.178]: in assay [4] (experiment wp134), the logFC is listed as −0.6929 and the “logFC BMP2K” value is given as −0.6929.

Consider `Cc1ncsc1-c1ccc([C@H](C)NC(=O)[C@@H]2C[C@@H](O)CN2C(=O)[C@@H](NC(=O)CCCCCN2CCN(c3ccc(Nc4ncc5scc(-c6cccc(NS(C)(=O)=O)c6)c5n4)cc3)CC2)C(C)(C)C)cc1` [RSS0680, (2S,4R)-1-((S)-3,3-Dimethyl-2-(6-(4-(4-((7-(3-(methylsulfonamido)phenyl)thieno[3,2-d]pyrimidin-2-yl)amino)phenyl)piperazin-1-yl)hexanamido)butanoyl)-4-hydroxy-N—((S)-1-(4-(4-methylthiazol-5yl)phenyl)ethyl)pyrrolidine-2-carboxamide], for which, in assay [5] (experiment wp117), the logFC was −0.3587 and the “logFC CDK1” value is listed as −0.3587. In assay [1] (experiment wp080), the logFC was −0.4061.
